Legend:
[1] = tested on: hepatocellular carcinoma (HepG2) cells; test: SRB cytotoxicity assay, HepG2; format: cell-based, human; conditions: for IC50: SRB assay, 72 h, mean ± SD of three experiments; for Selectivity Index HepG2: SI = IC50 on WI-38/IC50 on HepG2
Description: (§1) In the present work, sulforhodamine B (SRB) colorimetric assay was done to evaluate the cytotoxic activity of the synthesized 3-cyano pyridines 4a–4e, 5a–5e, and 6a–6e on three human cancer cell lines: prostate carcinoma (PC-3), breast cancer (MDA-MB-231) and hepatocellular carcinoma (HepG2) cell lines. 5-FU was used as a standard drug for comparison.
(§2) Human cancer cells were obtained from Nawah Scientific Inc. (Mokatam, Cairo, Egypt). Cells were maintained in DMEM media containing […] streptomycin, 100 units/mL penicillin, and 10% heat-inactivated fetal bovine serum in humified, 5% (v/v) CO2 atmosphere at 37 °C.
(§3) Cell viability was estimated using the SRB assay. Aliquots of 100 µL cell suspension (5 × 10^3 cells) in 96-well plates were incubated in complete media for 24 h. Cells were treated with a second aliquot of 100 µL media containing various concentrations of the tested compounds (0.01, 0.1, 1, 10, and 100 μM). After 72 h, cells were fixed by replacing media with 15 µL of 10% TCA and then incubated at 4 °C for 1 h. After that, TCA solution was removed, and the cells were washed 5 times with distilled water. Aliquots of 70 µL SRB solution (0.4% w/v) were added and incubated in a dark place at room temperature for 10 min. Plates were washed 3 times with 1% acetic acid and allowed to air dry overnight. Then, 150 µL of TRIS (10 mM) was added to dissolve protein-bound SRB stain. The absorbance was measured at 540 nm using BMG LABTECH®-FLUO star Omega microplate reader (Ortenberg, Germany).

[2] = tested on: breast cancer (MDA-MB-231) cells; test: SRB cytotoxicity assay, MDA-MB-231; format: cell-based, human; conditions: for IC50: SRB assay, 72 h, mean ± SD of three experiments; for Selectivity Index MDA-MB-231: SI = IC50 on WI-38/IC50 on MDA-MB-231
Description: as §1, §2, §3

normal cell line WI-38 = test: SRB cytotoxicity assay, normal cell line WI-38; format: cell-based
Description: The cytotoxicity of the newly synthesized compounds on the normal cell line WI-38 was also evaluated in order to examine the safety of these compounds.
as §3

[3] = tested on: prostate carcinoma (PC-3) cells; test: SRB cytotoxicity assay, PC-3; format: cell-based, human; conditions: for IC50: SRB assay, 72 h, mean ± SD of three experiments; for Selectivity Index PC-3: SI = IC50 on WI-38/IC50 on PC-3
Description: as §1, §2, §3

[4] = Homo sapiens, WI-38, mean ± SD of three experiments

SMILES	IC50 ([1]; Homo sapiens, HepG2, 72 h)	Selectivity Index HepG2 [1]	IC50 ([2]; Homo sapiens, MDA-MB-231, 72 h)	IC50 (normal cell line WI-38; [4])	IC50 ([3]; Homo sapiens, PC-3)	melting point	Selectivity Index MDA-MB-231 [2]	Selectivity Index PC-3 [3]	IC50 [1]	IC50 [2]	IC50 (normal cell line WI-38; mean ± SD of three experiments)	IC50 [3]
N#Cc1c(-c2ccccc2)cc(-c2ccc(OCc3ccc(F)cc3)cc2)nc1N [Compound 4a, 2-Amino-6-(4-((4-fluorobenzyl)oxy)phenyl)-4-phenylnicotinonitrile]	109 ± 0.35 µM	1.50	> 100 µM	164 ± 4.5 µM	> 100 µM	–	–	–	–	–	–	–
N#Cc1c(-c2ccc(F)cc2)cc(-c2ccc(OCc3ccc(F)cc3)cc2)nc1N [Compound 4b, 2-Amino-6-(4-((4-fluorobenzyl)oxy)phenyl)-4-(4-fluorophenyl)nicotinonitrile]	> 100 µM	–	> 100 µM	127 ± 3.6 µM	> 100 µM	125 to 127 °C	–	–	–	–	–	–
N#Cc1c(-c2ccc(Cl)cc2)cc(-c2ccc(OCc3ccc(F)cc3)cc2)nc1N [Compound 4c, 2-Amino-4-(4-chlorophenyl)-6-(4-((4-fluorobenzyl)oxy)phenyl)nicotinonitrile]	62 ± 0.61 µM	2.20	> 100 µM	137 ± 4.15 µM	> 100 µM	–	–	–	–	–	–	–
N#Cc1c(-c2ccc(Br)cc2)cc(-c2ccc(OCc3ccc(F)cc3)cc2)nc1N [Compound 4d, 2-Amino-4-(4-bromophenyl)-6-(4-((4-fluorobenzyl)oxy)phenyl)nicotinonitrile]	66 ± 0.12 µM	1.57	30 ± 0.18 µM	104 ± 3.16 µM	53 ± 1.12 µM	–	3.46	1.96	–	–	–	–
COc1ccc(-c2cc(-c3ccc(OCc4ccc(F)cc4)cc3)nc(N)c2C#N)cc1 [Compound 4e, 2-Amino-6-(4-((4-fluorobenzyl)oxy)phenyl)-4-(4-methoxyphenyl)nicotinonitrile]	> 100 µM	–	> 100 µM	94.7 ± 2.5 µM	> 100 µM	–	–	–	–	–	–	–
O=c1[nH]cc(F)c(=O)[nH]1 [Compound 5-FU, reference compound]	–	–	–	–	–	–	–	–	7.51 ± 0.11 µM	9.35 ± 0.74 µM	7.91 ± 1.8 µM	8.83 ± 0.09 µM
N#Cc1c(-c2ccccc2)cc(-c2ccc(OCc3ccc(F)cc3)cc2)[nH]c1=O [Compound 5a, 6-(4-((4-Fluorobenzyl)oxy)phenyl)-2-oxo-4-phenyl-1,2-dihydropyridine-3-carbonitrile]	30 ± 0.59 µM	5.80	52 ± 0.4 µM	174 ± 4.62 µM	47.5 ± 0.611 µM	–	3.34	3.66	–	–	–	–
N#Cc1c(-c2ccc(F)cc2)cc(-c2ccc(OCc3ccc(F)cc3)cc2)[nH]c1=O [Compound 5b, 6-(4-((4-Fluorobenzyl)oxy)phenyl)-4-(4-fluorophenyl)-2-oxo-1,2-dihydropyridine-3-carbonitrile]	21.8 ± 0.67 µM	6.02	26.3 ± 0.73 µM	132 ± 4.12 µM	34.2 ± 0.45 µM	–	4.99	3.84	–	–	–	–
N#Cc1c(-c2ccc(Br)cc2)cc(-c2ccc(OCc3ccc(F)cc3)cc2)[nH]c1=O [Compound 5d, 4-(4-Bromophenyl)-6-(4-((4-fluorobenzyl)oxy)phenyl)-2-oxo-1,2-dihydropyridine-3-carbonitrile]	27.3 ± 0.74 µM	6.63	34.8 ± 0.9 µM	181 ± 4.55 µM	30.2 ± 0.85 µM	–	5.20	5.99	–	–	–	–
N#Cc1c(-c2ccccc2)cc(-c2ccc(OCc3ccc(F)cc3)cc2)[nH]c1=S [Compound 6a, 6-(4-((4-Fluorobenzyl)oxy)phenyl)-4-phenyl-2-thioxo-1,2-dihydropyridine-3-carbonitrile]	60 ± 0.1 µM	1.62	72 ± 0.52 µM	97.4 ± 2.88 µM	> 100 µM	–	1.35	–	–	–	–	–
N#Cc1c(-c2ccc(F)cc2)cc(-c2ccc(OCc3ccc(F)cc3)cc2)[nH]c1=S [Compound 6b, 6-(4-((4-Fluorobenzyl)oxy)phenyl)-4-(4-fluorophenyl)-2-thioxo-1,2-dihydropyridine-3-carbonitrile]	41 ± 0.69 µM	5.01	66.7 ± 0.12 µM	206 ± 4.73 µM	60 ± 0.93 µM	–	3.08	3.42	–	–	–	–
N#Cc1c(-c2ccc(Cl)cc2)cc(-c2ccc(OCc3ccc(F)cc3)cc2)[nH]c1=S [Compound 6c, 4-(4-Chlorophenyl)-6-(4-((4-fluorobenzyl)oxy)phenyl)-2-thioxo-1,2-dihydropyridine-3-carbonitrile]	38 ± 0.94 µM	2.35	42 ± 0.48 µM	89.6 ± 2.75 µM	41.9 ± 0.61 µM	–	2.13	2.13	–	–	–	–
N#Cc1c(-c2ccc(Br)cc2)cc(-c2ccc(OCc3ccc(F)cc3)cc2)[nH]c1=S [Compound 6d, 4-(4-Bromophenyl)-6-(4-((4-fluorobenzyl)oxy)phenyl)-2-thioxo-1,2-dihydropyridine-3-carbonitrile]	86 ± 0.15 µM	1.69	71.2 ± 0.56 µM	146 ± 4.55 µM	99 ± 0.19 µM	–	2.04	1.47	–	–	–	–
COc1ccc(-c2cc(-c3ccc(OCc4ccc(F)cc4)cc3)[nH]c(=S)c2C#N)cc1 [Compound 6e, 6-(4-((4-Fluorobenzyl)oxy)phenyl)-4-(4-methoxyphenyl)-2-thioxo-1,2-dihydropyridine-3-carbonitrile]	40.3 µM	2.57	23.4 µM	104 ± 3.16 µM	35.9 ± 0.92 µM	–	4.43	2.89	40.3 ± 0.99 µM	23.4 ± 0.7 µM	–	–

From PMC7660103, “Discovery of Novel 3-Cyanopyridines as Survivin Modulators and Apoptosis Inducers” (Molecules, 2020)
